Data: article PMC10712727, “Safety, Tolerability, and Pharmacokinetics of Senaparib, a Novel PARP1/2 Inhibitor, in Chinese Patients With Advanced Solid Tumors: A Phase I Trial” (The Oncologist, 2023)

Tested on: advanced solid tumors
Test: Tumor response per RECIST v1.1 (ORR, DCR, DOR, PFS), ITT population
Assay type: in vivo, human
Text: The dose-expansion period included 3 populations: dose groups in which at least one patient achieved complete response (CR) or partial response (PR) per RECIST v1.1[16] and 1 dose group higher (evaluated for safety), as well as the dose group at the maximum tolerated dose (MTD)/recommended phase II dose (RP2D). Each of these groups included those patients in the respective dose-escalation group plus a planned additional 10 patients (approximately 20 patients in the MTD/RP2D group) with BRCA^mut+ solid tumors (ovarian, breast, or prostate cancer were preferred, and ovarian cancer could be BRCA wild type). Patients received senaparib monotherapy orally QD or BID (50-mg dose only) over each 3-week cycle until disease progression or unacceptable toxicity.
Safety was assessed by recording the incidence of dose-limiting toxicities (DLTs), and the incidence, nature, severity (graded per National Cancer Institute Common Terminology Criteria for Adverse Events version 4.03 [NCI CTCAE v4.03][18]), and relatedness of treatment-emergent adverse events (TEAEs). DLTs were predefined toxicities (Supplementary Table S2) recorded over the 7 days following the single-dose administration of senaparib and during the first treatment cycle (day 1-day 21) for each dose group in the dose-escalation period only. The MTD was defined as the maximum dose at which ≤1/6 patients experienced a DLT. Senaparib PK parameters were derived from blood samples collected from patients after the single administration, and at regular intervals during the first cycle of the dose-escalation and dose-expansion periods. Plasma concentrations of senaparib were determined using high-performance liquid chromatography-tandem mass spectrometry. Tumor response was assessed every 6 weeks per RECIST v1.1,[16] recording objective response rate (ORR), disease control rate (DCR), duration of response (DOR), and progression-free survival (PFS) by dose level for all patients and for those harboring BRCA^mut+ tumors.
There was no formal sample size calculation based on statistical hypothesis testing for this study; the planned enrolment was approximately 30-60 patients across the dose-escalation and dose-expansion cohorts. The actual number in the dose-escalation cohort was adjusted based on the number of dose cohorts required for the modified Fibonacci dose-escalation design and the determined MTD. Definitions for all analysis populations (safety, DLT, PK, and efficacy [intent-to-treat, ITT]) are provided in Supplementary Table S2. No statistical tests were performed; patient demographic and baseline characteristics, safety/tolerability, PK parameters, and efficacy were evaluated descriptively. ORR and DCR and their 95% CIs were calculated for each group using the exact probability method. Kaplan-Meier statistics were used to estimate DOR and PFS, and their 95% CIs for each dose group separately. Dose linearity was explored based on the single-dose data of area under the time-concentration curve (AUC) and maximum plasma concentration (Cmax) using the power model (Y = α × dose β) for the dose range 2-80 mg on a log-transformed scale. The following criterion was used to determine whether dose proportionality was met: if the (2-sided) 90% CI for β was wholly contained within the interval (1 + log(0.5)/log(r), 1 + log(2)/log(r)), then dose proportionality was supported. Here, r was defined as the ratio of the highest to lowest dose. All data analyses were carried out using SAS EG7.1 or higher or (for PK parameters) WinNonlin 7.0 or higher.

[1] = ITT, evaluable n = 44, all doses

## O=C(c1cc(Cn2c(=O)[nH]c(=O)c3c(F)cccc32)ccc1F)N1CCN(c2ncccn2)CC1 [Senaparib]
BRCA wild-type (6/18)
  Patients with a reduction from baseline in tumor size: 33.3%
BRCA^mut+ patients (13/26)
  Patients with a reduction from baseline in tumor size: 50.0%
ITT population, 95% CI, 56-255 days
  Median PFS: 167 days
ITT, 2 mg QD n = 1
  DOR, Events: 0 n (%)
  ORR: 0 n (%)
  PFS, Events: 0 (0) n (%)
ITT, 5 mg QD n = 3
  DOR, Events: 0 n (%)
  ORR: 0 n (%)
  PFS, Events: 2 (66.7) n (%)
  PFS, Median (95% CI): 464 (45-464) days
ITT, 10 mg QD n = 3
  Complete response: 0 n (%)
  DCR: 1 (33.3) n (%)
  DOR, Events: 0 n (%)
  ORR: 0 (0) n (%)
  PFS, Events: 3 (100) n (%)
  PFS, Median (95% CI): 49 (47-88) days
  Partial response: 0 n (%)
  Stable disease: 1 (33.3) n (%)
ITT, 20 mg QD n = 5
  Complete response: 0 n (%)
  DCR: 2 (50.0) n (%)
  DOR, Events: 1 (50.0) n (%)
  DOR, Median (95% CI): — (1-NR)
  ORR: 2 (50.0) n (%)
  PFS, Events: 3 (60.0) n (%)
  PFS, Median (95% CI): 78 (39-NR) days
  Partial response: 2 (50.0) n (%)
  Stable disease: 0 n (%)
ITT, 40 mg QD n = 3
  Complete response: 0 n (%)
  DCR: 0 (0) n (%)
  DOR, Events: 0 n (%)
  ORR: 0 (0) n (%)
  PFS, Events: 2 (66.7) n (%)
  PFS, Median (95% CI): 49 (48-NR) days
  Partial response: 0 n (%)
  Stable disease: 0 n (%)
ITT, 50 mg BID n = 4
  Complete response: 0 n (%)
  DCR: 2 (66.7) n (%)
  DOR, Events: 0 n (%)
  ORR: 1 (33.3) n (%)
  PFS, Events: 1 (25.0) n (%)
  PFS, Median (95% CI): — (46-NR)
  Partial response: 1 (33.3) n (%)
  Stable disease: 1 (33.3) n (%)
ITT, 60 mg QD n = 5
  Complete response: 0 n (%)
  DCR: 4 (100) n (%)
  DOR, Events: 0 n (%)
  ORR: 1 (25.0) n (%)
  PFS, Events: 2 (40.0) n (%)
  PFS, Median (95% CI): 255 (127-NR) days
  Partial response: 1 (25.0) n (%)
  Stable disease: 3 (75.0) n (%)
ITT, 80 mg QD n = 9
  Complete response: 0 n (%)
  DCR: 6 (75.0) n (%)
  DOR, Events: 4 (100) n (%)
  DOR, Median (95% CI): 144.5 (39-211) days
  ORR: 4 (50.0) n (%)
  PFS, Events: 8 (88.9) n (%)
  PFS, Median (95% CI): 167 (40-216) days
  Partial response: 4 (50.0) n (%)
  Stable disease: 2 (25.0) n (%)
ITT, 100 mg QD n = 20
  Complete response: 0 n (%)
  DCR: 12 (70.6) n (%)
  DOR, Events: 1 (50.0) n (%)
  DOR, Median (95% CI): — (169-NR)
  ORR: 2 (11.8) n (%)
  PFS, Events: 8 (40.0) n (%)
  PFS, Median (95% CI): 289 (48-NR) days
  Partial response: 2 (11.8) n (%)
  Stable disease: 10 (58.8) n (%)
ITT, 120 mg QD n = 4
  Complete response: 0 n (%)
  DCR: 1 (33.3) n (%)
  DOR, Events: 0 n (%)
  ORR: 0 (0) n (%)
  PFS, Events: 3 (75.0) n (%)
  PFS, Median (95% CI): 153 (44-258) days
  Partial response: 0 n (%)
  Stable disease: 1 (33.3) n (%)
ITT, Total N = 57
  Complete response: 0 n (%)
  DCR: 28 (63.6) n (%)
  DOR, Events: 6 (60.0) n (%)
  DOR, Median (95% CI): 169 (1-NR) days
  ORR: 10 (22.7) n (%)
  PFS, Events: 32 (56.1) n (%)
  PFS, Median (95% CI): 167 (56-255) days
  Partial response: 10 (22.7) n (%)
  Stable disease: 18 (40.9) n (%)
[1]
  Disease control rate (DCR): 63.6%
  Objective response rate (ORR): 22.7%
  Stable disease, patients: 40.9%
ITT, 95% CI, 1-not reached
  Median DOR: 169 days
In vivo
  Doses at which antitumor activity was observed: ≥ 20 mg QD
non-ovarian cancers (6/20)
  Patients with a decrease from baseline in tumor size: 30.0%
Ovarian cancer (13/24)
  Patients with a decrease from baseline in tumor size: 54.2%
Patients with breast cancer (3/12)
  ORR: 25.0%
Patients with ovarian cancer (5/25)
  ORR: 20.0%
Patients with prostate cancer (1/4)
  ORR: 25.0%
